Drawing on the NIST ThermoML archive (doi:10.1021/acs.jced.8b00725), this text covers mass density for 14 molecules.

Numbers after ± are expanded uncertainties.

The mass density is mass per unit of volume.

For the first series the following is noted: 328.15 K; 100 kPa; Liquid; Vibrating tube method.
Take `CC[NH+](CC)CC.O=C([O-])C(F)(F)F` [triethylammonium trifluoroacetate]: the mass density is reported as 1136.91 ± 9.1 kg/m3.
On the same count and under the same terms, the result for `CC[NH+](CC)CC.O=C([O-])c1ccccc1` [triethylammonium benzoate] reads 1077.68 ± 8.1 kg/m3; that for `CC[NH+](CC)CC.CS(=O)(=O)[O-]` [triethylammonium methanesulfonate], 1097.26 ± 8.4 kg/m3; that for `CCC(=O)[O-].OCC[NH+](CCO)CCO` [triethanolammonium propanoate], 1118.01 ± 6.8 kg/m3.

Staying with this series, now noted: 333.15 K; 100 kPa; Liquid; Vibrating tube method.
As for `CC[NH2+]CC.CS(=O)(=O)[O-]` [diethylammonium methanesulfonate], the mass density stood at 1117.5 ± 8.8 kg/m3.
For `CC[NH+](CC)CC.O=S(=O)([O-])C(F)(F)F` [triethylammonium trifluoromethanesulfonate], the mass density was determined as 1236.53 ± 11 kg/m3.
Regarding `CC[NH2+]CC.O=C([O-])C(F)(F)F` [diethylammonium trifluoroacetate], the mass density was 1150.69 ± 9.3 kg/m3.
With `CCN(CC)CC.O=C(O)c1ccccc1O` [triethylammonium salicylate], the mass density was determined as 1073.13 ± 8.1 kg/m3.
Same read-out and setting: the result for `CC[NH2+]CC.O=S(=O)([O-])O` [diethylammonium hydrogen sulfate] reads 1357.53 ± 13 kg/m3; that for `CC(=O)O.CCN(CC)CC` [triethylammonium acetate], 983.14 ± 6.7 kg/m3; that for `O=C(O)c1ccccc1O.OCCN(CCO)CCO` [triethanolammonium salicylate], 1245.42 ± 11 kg/m3.
The same measure, in the same setting: the result for `O=S(=O)(O)O.OCCN(CCO)CCO` [triethanolammonium hydrogen sulfate] reads 1416.33 ± 14 kg/m3; that for `CC[NH+](C)C.O=C([O-])C(F)(F)F` [N,N-dimethyl-N-ethylammonium trifluoroacetate], 1178.33 ± 9.8 kg/m3; that for `CC[NH+](CC)CC.O=C([O-])C(F)(F)F` [triethylammonium trifluoroacetate], 1132.82 ± 9 kg/m3.
Consider `CC[NH+](CC)CC.O=C([O-])c1ccccc1` [triethylammonium benzoate], for which the mass density was found to be 1074.3 ± 8.1 kg/m3.
Regarding `CC[NH+](CC)CC.CS(=O)(=O)[O-]` [triethylammonium methanesulfonate], the mass density was 1093.99 ± 8.4 kg/m3.
In the case of `CCC(=O)[O-].OCC[NH+](CCO)CCO` [triethanolammonium propanoate], the mass density is recorded as 1114.84 ± 6.7 kg/m3.

The same series, now with this note: 338.15 K; 100 kPa; Liquid; Vibrating tube method.
For `CC[NH2+]CC.CS(=O)(=O)[O-]` [diethylammonium methanesulfonate], the mass density is listed as 1114.27 ± 8.7 kg/m3.
Consider `CC[NH+](CC)CC.O=S(=O)([O-])C(F)(F)F` [triethylammonium trifluoromethanesulfonate], for which the mass density came out at 1232.58 ± 11 kg/m3.
For the molecule `CC[NH2+]CC.O=C([O-])C(F)(F)F` [diethylammonium trifluoroacetate], the mass density came out at 1146.65 ± 9.2 kg/m3.
Consider `CCN(CC)CC.O=C(O)c1ccccc1O` [triethylammonium salicylate], for which the mass density stood at 1069.93 ± 8 kg/m3.
Turning to `CC[NH2+]CC.O=S(=O)([O-])O` [diethylammonium hydrogen sulfate], the mass density was 1354.45 ± 13 kg/m3.
For `CC(=O)O.CCN(CC)CC` [triethylammonium acetate], the mass density is recorded as 979.32 ± 6.7 kg/m3.
With `CCN(CC)CC.O=P(O)(O)O` [triethylammonium dihydrogen phosphate], the mass density stood at 1329.48 ± 12 kg/m3.
With `O=C(O)c1ccccc1O.OCCN(CCO)CCO` [triethanolammonium salicylate], the mass density came out at 1242.4 ± 11 kg/m3.
With `O=S(=O)(O)O.OCCN(CCO)CCO` [triethanolammonium hydrogen sulfate], the mass density was found to be 1413.85 ± 14 kg/m3.
On to `CC[NH+](C)C.O=C([O-])C(F)(F)F` [N,N-dimethyl-N-ethylammonium trifluoroacetate], for which the mass density was 1174.09 ± 9.7 kg/m3.
For the molecule `CC[NH+](CC)CC.O=C([O-])C(F)(F)F` [triethylammonium trifluoroacetate], the mass density is 1128.74 ± 8.9 kg/m3.
Take `CC[NH+](CC)CC.O=C([O-])c1ccccc1` [triethylammonium benzoate]: the mass density is listed as 1070.92 ± 8 kg/m3.
As to `CC[NH+](CC)CC.CS(=O)(=O)[O-]` [triethylammonium methanesulfonate], the mass density worked out at 1090.72 ± 8.3 kg/m3.
As to `CCC(=O)[O-].OCC[NH+](CCO)CCO` [triethanolammonium propanoate], the mass density turned out to be 1111.68 ± 6.7 kg/m3.

The series is the same for the next values; noted with them: 343.15 K; 100 kPa; Liquid; Vibrating tube method.
As to `CC[NH2+]CC.CS(=O)(=O)[O-]` [diethylammonium methanesulfonate], the mass density was determined as 1111.06 ± 8.7 kg/m3.
For `CC[NH+](CC)CC.O=S(=O)([O-])C(F)(F)F` [triethylammonium trifluoromethanesulfonate], the mass density was determined as 1228.65 ± 11 kg/m3.
As for `CC[NH2+]CC.O=C([O-])C(F)(F)F` [diethylammonium trifluoroacetate], the mass density is 1142.62 ± 9.2 kg/m3.
For the molecule `CCN(CC)CC.O=C(O)c1ccccc1O` [triethylammonium salicylate], the mass density is listed as 1066.73 ± 8 kg/m3.
In the case of `CC[NH2+]CC.O=S(=O)([O-])O` [diethylammonium hydrogen sulfate], the mass density was 1351.38 ± 13 kg/m3.
Still for that read-out and setting: the figure for `CC(=O)O.CCN(CC)CC` [triethylammonium acetate] is 975.48 ± 6.6 kg/m3; for `CCN(CC)CC.O=P(O)(O)O` [triethylammonium dihydrogen phosphate] it is 1327.08 ± 12 kg/m3; for `O=C(O)c1ccccc1O.OCCN(CCO)CCO` [triethanolammonium salicylate] it is 1239.42 ± 11 kg/m3.
Regarding `O=S(=O)(O)O.OCCN(CCO)CCO` [triethanolammonium hydrogen sulfate], the mass density worked out at 1411.31 ± 14 kg/m3.
`CC[NH+](C)C.O=C([O-])C(F)(F)F` [N,N-dimethyl-N-ethylammonium trifluoroacetate]: the mass density was found to be 1169.9 ± 9.6 kg/m3.
For the molecule `CC[NH+](CC)CC.O=C([O-])C(F)(F)F` [triethylammonium trifluoroacetate], the mass density came to 1124.67 ± 8.9 kg/m3.
As to `CC[NH+](CC)CC.O=C([O-])c1ccccc1` [triethylammonium benzoate], the mass density is given as 1067.55 ± 8 kg/m3.
On the same count and under the same terms, the result for `CC[NH+](CC)CC.CS(=O)(=O)[O-]` [triethylammonium methanesulfonate] reads 1087.47 ± 8.3 kg/m3; that for `CCC(=O)[O-].OCC[NH+](CCO)CCO` [triethanolammonium propanoate], 1108.5 ± 6.7 kg/m3.

Staying with this series, now noted: 348.15 K; 100 kPa; Liquid; Vibrating tube method.
Turning to `CC[NH2+]CC.CS(=O)(=O)[O-]` [diethylammonium methanesulfonate], the mass density turned out to be 1107.86 ± 8.6 kg/m3.
In the case of `CC[NH+](CC)CC.O=S(=O)([O-])C(F)(F)F` [triethylammonium trifluoromethanesulfonate], the mass density is 1224.73 ± 11 kg/m3.
On to `CC[NH2+]CC.O=C([O-])C(F)(F)F` [diethylammonium trifluoroacetate], for which the mass density is on record as 1138.55 ± 9.1 kg/m3.
Turning to `CCN(CC)CC.O=C(O)c1ccccc1O` [triethylammonium salicylate], the mass density came out at 1063.54 ± 7.9 kg/m3.
For `CC[NH2+]CC.O=S(=O)([O-])O` [diethylammonium hydrogen sulfate], the mass density is listed as 1348.31 ± 13 kg/m3.
For `CC(=O)O.CCN(CC)CC` [triethylammonium acetate], the mass density is 971.62 ± 6.6 kg/m3.
Consider `CCN(CC)CC.O=P(O)(O)O` [triethylammonium dihydrogen phosphate], for which the mass density turned out to be 1324.69 ± 12 kg/m3.
Same read-out and setting: the figure for `O=C(O)c1ccccc1O.OCCN(CCO)CCO` [triethanolammonium salicylate] is 1236.44 ± 11 kg/m3; for `O=S(=O)(O)O.OCCN(CCO)CCO` [triethanolammonium hydrogen sulfate] it is 1408.87 ± 14 kg/m3; for `CC[NH+](C)C.O=C([O-])C(F)(F)F` [N,N-dimethyl-N-ethylammonium trifluoroacetate] it is 1165.69 ± 9.5 kg/m3.
With `CC[NH+](CC)CC.O=C([O-])C(F)(F)F` [triethylammonium trifluoroacetate], the mass density is reported as 1120.6 ± 8.8 kg/m3.
For the molecule `CC[NH+](CC)CC.O=C([O-])c1ccccc1` [triethylammonium benzoate], the mass density stood at 1064.18 ± 7.9 kg/m3.
Consider `CC[NH+](CC)CC.CS(=O)(=O)[O-]` [triethylammonium methanesulfonate], for which the mass density came out at 1084.22 ± 8.2 kg/m3.
The same measure, in the same setting: the figure for `CCC(=O)[O-].OCC[NH+](CCO)CCO` [triethanolammonium propanoate] is 1105.29 ± 6.6 kg/m3.

Staying with this series, now noted: 353.15 K; 100 kPa; Liquid; Vibrating tube method.
`CC[NH2+]CC.CS(=O)(=O)[O-]` [diethylammonium methanesulfonate]: the mass density stood at 1104.68 ± 8.5 kg/m3.
On to `CC[NH+](CC)CC.O=S(=O)([O-])C(F)(F)F` [triethylammonium trifluoromethanesulfonate], for which the mass density is 1220.84 ± 10 kg/m3.
`CC[NH2+]CC.O=C([O-])C(F)(F)F` [diethylammonium trifluoroacetate]: the mass density amounted to 1134.5 ± 9 kg/m3.
`CCN(CC)CC.O=C(O)c1ccccc1O` [triethylammonium salicylate]: the mass density worked out at 1060.36 ± 7.9 kg/m3.
Same read-out and setting: the figure for `CC[NH2+]CC.O=S(=O)([O-])O` [diethylammonium hydrogen sulfate] is 1345.25 ± 13 kg/m3; for `CC(=O)O.CCN(CC)CC` [triethylammonium acetate] it is 967.74 ± 6.5 kg/m3; for `CCN(CC)CC.O=P(O)(O)O` [triethylammonium dihydrogen phosphate] it is 1322.31 ± 12 kg/m3.
For the molecule `O=C(O)c1ccccc1O.OCCN(CCO)CCO` [triethanolammonium salicylate], the mass density is recorded as 1233.42 ± 11 kg/m3.
Same read-out and setting: the figure for `O=S(=O)(O)O.OCCN(CCO)CCO` [triethanolammonium hydrogen sulfate] is 1406.37 ± 14 kg/m3; for `CC[NH+](C)C.O=C([O-])C(F)(F)F` [N,N-dimethyl-N-ethylammonium trifluoroacetate] it is 1161.51 ± 9.5 kg/m3; for `CC[NH+](CC)CC.O=C([O-])C(F)(F)F` [triethylammonium trifluoroacetate] it is 1116.54 ± 8.7 kg/m3.
Turning to `CC[NH+](CC)CC.O=C([O-])c1ccccc1` [triethylammonium benzoate], the mass density is 1060.82 ± 7.9 kg/m3.
For the molecule `CC[NH+](CC)CC.CS(=O)(=O)[O-]` [triethylammonium methanesulfonate], the mass density turned out to be 1080.98 ± 8.2 kg/m3.
With `CCC(=O)[O-].OCC[NH+](CCO)CCO` [triethanolammonium propanoate], the mass density is listed as 1102.06 ± 6.6 kg/m3.
